Our source for the IC50 values is paper PMC10465358 (Nature Microbiology, 2023).

One test concerns the target T1, P. bivia PulA (Prevotella bivia, UniProt I4Z8K5).
T1 construct: gene PrebiDRAFT_0808
The test can be described thus: BODIPY fluorescent starch amylase assay with purified enzyme. The class given is biochemical. From the text:
BODIPY fluorescent starch amylase assay with purified enzyme on P. bivia PulA | Acarbose inhibited G. vaginalis PulA, P. bivia PulA and P. bivia GH13 enzymes

The next test deals with T2, G. vaginalis PulA (Gardnerella vaginalis, UniProt A0ACD7VVB6).
T2 construct: gene GAVG_1021; signal peptide removed, N-terminal His6 (pET28a, pETpullGV), E. coli ArcticExpress (DE3), 219 kDa, two alpha-amylase (GH13) domains (D233, D1317)
T2 sequence (A0ACD7VVB6 34-2012): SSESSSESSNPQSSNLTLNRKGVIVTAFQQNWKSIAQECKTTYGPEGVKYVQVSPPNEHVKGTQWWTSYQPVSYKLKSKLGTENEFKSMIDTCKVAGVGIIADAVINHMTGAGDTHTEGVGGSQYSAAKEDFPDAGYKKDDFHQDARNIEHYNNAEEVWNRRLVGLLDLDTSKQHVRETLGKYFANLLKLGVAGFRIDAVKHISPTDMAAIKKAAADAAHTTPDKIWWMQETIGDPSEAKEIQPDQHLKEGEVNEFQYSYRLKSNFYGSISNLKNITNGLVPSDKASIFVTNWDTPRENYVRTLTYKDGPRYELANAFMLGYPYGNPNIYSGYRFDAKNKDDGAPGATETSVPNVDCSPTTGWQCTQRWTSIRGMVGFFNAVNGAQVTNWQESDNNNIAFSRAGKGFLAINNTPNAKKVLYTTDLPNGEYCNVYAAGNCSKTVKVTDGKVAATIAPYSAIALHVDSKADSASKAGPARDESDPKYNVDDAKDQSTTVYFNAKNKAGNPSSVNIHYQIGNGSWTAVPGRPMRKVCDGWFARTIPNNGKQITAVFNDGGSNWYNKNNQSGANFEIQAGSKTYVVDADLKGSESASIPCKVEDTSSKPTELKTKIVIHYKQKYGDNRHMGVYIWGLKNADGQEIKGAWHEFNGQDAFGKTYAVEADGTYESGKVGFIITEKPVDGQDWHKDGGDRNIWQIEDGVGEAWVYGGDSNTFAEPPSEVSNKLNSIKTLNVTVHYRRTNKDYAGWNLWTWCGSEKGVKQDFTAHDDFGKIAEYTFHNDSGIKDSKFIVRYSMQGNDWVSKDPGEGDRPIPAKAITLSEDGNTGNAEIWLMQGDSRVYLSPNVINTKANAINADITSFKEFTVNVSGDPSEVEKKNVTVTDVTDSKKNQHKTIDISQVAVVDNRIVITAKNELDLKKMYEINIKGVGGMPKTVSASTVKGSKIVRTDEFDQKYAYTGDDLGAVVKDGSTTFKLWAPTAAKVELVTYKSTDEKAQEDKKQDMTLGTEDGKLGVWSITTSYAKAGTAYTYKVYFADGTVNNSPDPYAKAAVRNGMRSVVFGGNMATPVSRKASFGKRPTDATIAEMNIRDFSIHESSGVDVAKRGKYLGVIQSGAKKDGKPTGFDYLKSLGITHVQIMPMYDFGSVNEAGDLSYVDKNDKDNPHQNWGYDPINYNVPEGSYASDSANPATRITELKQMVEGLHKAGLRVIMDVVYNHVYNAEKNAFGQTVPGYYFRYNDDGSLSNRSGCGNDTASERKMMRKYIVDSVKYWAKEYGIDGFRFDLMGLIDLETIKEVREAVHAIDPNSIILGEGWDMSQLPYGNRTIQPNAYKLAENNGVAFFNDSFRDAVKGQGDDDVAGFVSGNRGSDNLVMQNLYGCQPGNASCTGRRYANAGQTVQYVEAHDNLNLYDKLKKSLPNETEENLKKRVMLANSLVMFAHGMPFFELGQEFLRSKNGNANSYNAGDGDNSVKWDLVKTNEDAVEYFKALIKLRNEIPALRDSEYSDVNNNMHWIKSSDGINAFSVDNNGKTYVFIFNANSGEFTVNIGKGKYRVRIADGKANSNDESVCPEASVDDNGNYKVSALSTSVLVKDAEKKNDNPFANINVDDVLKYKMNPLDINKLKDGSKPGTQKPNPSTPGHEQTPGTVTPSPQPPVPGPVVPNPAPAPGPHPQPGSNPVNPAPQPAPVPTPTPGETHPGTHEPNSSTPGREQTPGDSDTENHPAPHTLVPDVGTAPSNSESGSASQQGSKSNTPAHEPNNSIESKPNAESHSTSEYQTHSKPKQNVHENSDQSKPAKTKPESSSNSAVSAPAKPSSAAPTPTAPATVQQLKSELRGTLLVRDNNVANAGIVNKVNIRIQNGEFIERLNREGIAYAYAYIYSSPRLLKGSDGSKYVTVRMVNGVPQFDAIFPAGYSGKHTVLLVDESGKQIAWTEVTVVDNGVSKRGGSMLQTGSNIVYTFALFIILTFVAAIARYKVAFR
The test can be described thus: fluorescent (BODIPY) starch hydrolysis. The class given is biochemical. The settings on record: BODIPY starch substrate; 15 min preincubation; 37 °C; pH not stated; error is 95% confidence interval. The source says:
fluorescent (BODIPY) starch hydrolysis on G. vaginalis PulA | Acarbose inhibited G. vaginalis PulA, P. bivia PulA and P. bivia GH13 enzymes

T1 sequence (I4Z8K5 23-637 limits assumed): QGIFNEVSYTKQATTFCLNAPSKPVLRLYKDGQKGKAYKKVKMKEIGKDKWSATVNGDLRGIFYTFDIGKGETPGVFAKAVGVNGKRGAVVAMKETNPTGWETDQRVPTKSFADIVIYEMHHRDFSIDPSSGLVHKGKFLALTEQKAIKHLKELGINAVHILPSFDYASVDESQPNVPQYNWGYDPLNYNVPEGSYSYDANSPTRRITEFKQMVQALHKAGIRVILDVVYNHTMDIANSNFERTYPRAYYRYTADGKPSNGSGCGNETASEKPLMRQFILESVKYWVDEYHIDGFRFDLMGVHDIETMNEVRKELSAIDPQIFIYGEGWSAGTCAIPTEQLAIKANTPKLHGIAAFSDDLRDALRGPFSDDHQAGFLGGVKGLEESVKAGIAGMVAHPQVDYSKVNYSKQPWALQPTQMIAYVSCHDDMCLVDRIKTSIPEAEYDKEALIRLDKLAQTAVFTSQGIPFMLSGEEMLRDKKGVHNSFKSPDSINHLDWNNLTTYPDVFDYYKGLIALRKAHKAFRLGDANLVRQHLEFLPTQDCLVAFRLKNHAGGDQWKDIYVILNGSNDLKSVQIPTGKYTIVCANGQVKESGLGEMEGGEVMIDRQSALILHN

As for `C[C@H]1O[C@H](O[C@H]2[C@H](O)[C@@H](O)[C@@H](O[C@H]3[C@H](O)[C@@H](O)C(O)O[C@@H]3CO)O[C@@H]2CO)[C@H](O)[C@@H](O)[C@@H]1N[C@H]1C=C(CO)[C@@H](O)[C@H](O)[C@H]1O` (some centres unmarked) [acarbose], the IC50 on P. bivia PulA was 420 ± 90 µM; on G. vaginalis PulA it was 120 ± 30 µM.

By IC50 is commonly meant the concentration that gives 50% inhibition. A high value points to a need for much substance.
